Patent US20250318529A1, “METHOD FOR MOSQUITO CONTROL” (SYNGENTA CROP PROTECTION AG, priority 2022, published 2025)

Assays:
Experiment in all cases: CDC bottle bioassay, adult female mosquitoes
An. gambiae Tiassale = type: in vivo, Anopheles gambiae; details: pyrethroid Resistant
Protocol: (§1) Examples B1-B3: Bottle Assay Based on the Guideline for Evaluating Insecticide Resistance in Vectors Using the CDC Bottle Bioassay
(§2) 1 ml of acetone containing a test compound at a defined concentration, and 1500 ppm Mero (Bayer Crop Science) was added to a 250 ml glass bottle, the bottle was placed on a rolling table to coat the inner surfaces as the solvent evaporated. Once dry, approximately twenty five non-blood fed adult female mosquitoes of the appropriate species and strains (each two or three days old) were aspirated from the stock culture and gently blown into the exposure bottle. The lid of the bottle was replaced, and the bottle placed upright out of direct sun light under standard culture conditions, nominally 28° C. and 60-80% relative humidity.
(§3) A stopwatch was started, and the assessment of the knock-down were made after 60 minutes. A mosquito was said to be knocked down if it was unable to stand, following the CDC definition.
(§4) After one hour the mosquitoes were carefully removed from the bottle with an aspirator and placed in a recovery cup. The mosquitoes were supplied with a 10% sucrose solution on a cotton wool bung, and stored under culture conditions. Assessments of the mortality were made after 24 and 48 hours.
(§5) Each treatment was replicated a minimum of three times, with the mean knockdown or mortality recorded. In each study, a set of bottles was infested with a known insecticide susceptible strain of mosquitoes from the same genera as the resistant strains.

An. gambiae KisKDR = type: in vivo, Anopheles gambiae; details: pyrethroid Resistant
Protocol: as §1, §2, §3, §4, §5

An. gambiae M'Bé = type: in vivo, Anopheles gambiae; details: pyrethroid Resistant
Protocol: as §1, §2, §3, §4, §5

Anopheles stephensi = type: in vivo; details: pyrethroid Susceptible
Protocol: as §1, §2, §3, §4, §5

An. gambiae Kisumu = type: in vivo, Anopheles gambiae; details: pyrethroid Susceptible
Protocol: as §1
[…] Once dry, approximately twenty five non-blood fed adult female mosquitoes of the appropriate species and strains (each two or three days old) were aspirated from the stock culture and gently blown into the exposure bottle. The lid of the bottle was replaced, and the bottle placed upright out of direct sun light under standard culture conditions, nominally 28° C. and 60-80% relative humidity.
as §3, §4, §5

[1] = Table B1, 25 μg/bottle + 1.5 mg Mero
[2] = Table B1, 50 μg/bottle + 1.5 mg Mero
[3] = Table B1, 250 μg/bottle + 1.5 mg Mero
[4] = Table B3, 25 μg/bottle + 1.5 mg Mero
[5] = Table B3, 50 μg/bottle + 1.5 mg Mero
[6] = Table B3, 250 μg/bottle + 1.5 mg Mero
[7] = Table B2, 50 μg/bottle + 1.5 mg Mero
[8] = Table B2, 250 μg/bottle + 1.5 mg Mero

## CC1(C)C(C=C(Cl)Cl)C1C(=O)OCc1cccc(Oc2ccccc2)c1 (stereo not shown) [Permethrin, reference compound]
An. gambiae Tiassale; Table B1, 20 μg/bottle
  Mean % mortality 60 minutes: 45.6%
  Mean % mortality 24 hours: 80%
An. gambiae Tiassale; Table B3, 20 μg/bottle
  Mean % mortality 60 minutes: 99.1%
  Mean % mortality 24 hours: 91.7%
An. gambiae KisKDR; Table B2, 20 μg/bottle
  Mean % mortality 60 minutes: 100%
  Mean % mortality 24 hours: 82.1%
An. gambiae M'Bé; Table B2, 20 μg/bottle
  Mean % mortality 60 minutes: 12.5%
  Mean % mortality 24 hours: 13.9%
Anopheles stephensi; Table B1, 20 μg/bottle
  Mean % mortality 60 minutes: 100%
  Mean % mortality 24 hours: 100%
An. gambiae Kisumu; Table B1, 20 μg/bottle
  Mean % mortality 60 minutes: 100%
  Mean % mortality 24 hours: 100%
An. gambiae Kisumu; Table B2, 20 μg/bottle
  Mean % mortality 60 minutes: 100%
  Mean % mortality 24 hours: 100%
An. gambiae Kisumu; Table B3, 20 μg/bottle
  Mean % mortality 60 minutes: 100%
  Mean % mortality 24 hours: 100%

## CCN1OCC(NC(=O)c2ccc(C3=NOC(c4cc(Cl)c(F)c(Cl)c4)(C(F)(F)F)C3)cc2C)C1=O (stereo not shown) [Isocycloseram]
An. gambiae Tiassale; [1]
  Mean % mortality 60 minutes: 38.4%
  Mean % mortality 24 hours: 89.6%
An. gambiae Tiassale; [2]
  Mean % mortality 60 minutes: 84%
  Mean % mortality 24 hours: 100%
An. gambiae Tiassale; [3]
  Mean % mortality 60 minutes: 98.4%
  Mean % mortality 24 hours: 100%
An. gambiae Tiassale; [4]
  Mean % mortality 60 minutes: 96.9%
  Mean % mortality 24 hours: 100%
An. gambiae Tiassale; [5]
  Mean % mortality 60 minutes: 99.2%
  Mean % mortality 24 hours: 100%
An. gambiae Tiassale; [6]
  Mean % mortality 60 minutes: 99.1%
  Mean % mortality 24 hours: 100%
An. gambiae KisKDR; [7]
  Mean % mortality 60 minutes: 86.7%
  Mean % mortality 24 hours: 100%
An. gambiae KisKDR; [8]
  Mean % mortality 60 minutes: 100%
  Mean % mortality 24 hours: 100%
An. gambiae M'Bé; [7]
  Mean % mortality 60 minutes: 37.8%
  Mean % mortality 24 hours: 70.3%
An. gambiae M'Bé; [8]
  Mean % mortality 60 minutes: 89.3%
  Mean % mortality 24 hours: 100%
Anopheles stephensi; [1]
  Mean % mortality 60 minutes: 12%
  Mean % mortality 24 hours: 70.4%
Anopheles stephensi; [2]
  Mean % mortality 60 minutes: 60.8%
  Mean % mortality 24 hours: 98.4%
Anopheles stephensi; [3]
  Mean % mortality 60 minutes: 79.2%
  Mean % mortality 24 hours: 100%
An. gambiae Kisumu; [1]
  Mean % mortality 60 minutes: 56.8%
  Mean % mortality 24 hours: 89.6%
An. gambiae Kisumu; [2]
  Mean % mortality 60 minutes: 88.8%
  Mean % mortality 24 hours: 100%
An. gambiae Kisumu; [3]
  Mean % mortality 60 minutes: 99.2%
  Mean % mortality 24 hours: 100%
An. gambiae Kisumu; [7]
  Mean % mortality 60 minutes: 80.77%
  Mean % mortality 24 hours: 100%
An. gambiae Kisumu; [8]
  Mean % mortality 60 minutes: 80.77%
  Mean % mortality 24 hours: 100%
An. gambiae Kisumu; [4]
  Mean % mortality 60 minutes: 98.8%
  Mean % mortality 24 hours: 100%
An. gambiae Kisumu; [5]
  Mean % mortality 60 minutes: 96.4%
  Mean % mortality 24 hours: 100%
An. gambiae Kisumu; [6]
  Mean % mortality 60 minutes: 99.2%
  Mean % mortality 24 hours: 100%
